In patent publication US20100203132A1, “Pharmaceutical Compositions Comprising NEP-Inhibitors, Inhibitors of the Endogenous Endothelin Producing System and AT1 Receptor Antagonists” (Solvay Pharmaceuticals GmbH, priority 2004, published 2010):
Counter-ions that a name gives are not always drawn.

Legend:
[1] = system: spontaneously hypertensive rat; test: Telemetric monitoring of blood pressure and heart rate in spontaneously hypertensive rats, compounds given via the drinking water; type: in vivo; details: SHR; for DBP, change vs. baseline / HR, change vs. baseline / SBP, change vs. baseline: mean, n=5
Description: Male spontaneously hypertensive rats (=SHR, insulin resistant strain from Charles River; aged 6 months) were equipped with telemetry transmitters for continuous monitoring of blood pressure and heart rate (as described below). After 3 days of monitoring under baseline (untreated) conditions, animals were divided into two groups receiving an AT1-receptor antagonist (eprosartan mesylate, hereinafter referred to as experiment I; or candesartan cilexetil, hereinafter referred to as experiment II) or an AT1-receptor antagonist plus daglutril in combination. In experiment II, a third group of rats was included, receiving only daglutril. Compounds were administered via the drinking water, and daily drug intake was measured by weighing the water bottles thrice weekly. Intended daily doses in experiment I were 60 mg/kg/day of eprosartan mesylate plus, in the combination group, 100 mg/kg/day of daglutril. In experiment II, intended daily doses were 1 mg/kg of candesartan cilexetil, and 100 mg/kg of daglutril in the daglutril only and the combination group. Telemetry transmitters for continuous monitoring of blood pressure, heart rate and locomotor activity (TA11PA-C40, Data Sciences, USA) were implanted intraabdominally under inhalative halothane anesthesia. A midline abdominal incision was made, and the abdominal aorta was visualized by removal of retroperitoneal fat and connective tissue. A ligature was placed caudal of the renal arteries, the aorta was punctured with a 22G needle, and the catheter was advanced into the aorta. The entry point was sealed with tissue adhesive (Vetbond®, 3M, USA), the ligature was removed, and the abdominal incision was closed. Measurements of aortic pressure were taken every 5 minutes (=min) for 4 seconds (=s) each at a sampling rate of 500 Hz, and were corrected for the corresponding ambient pressure (ambient pressure monitor, C11 PR, Data Sciences, USA).
Concentrations of AT1-receptor antagonists and daglutril in the drinking water were adjusted once per week, in order to ensure the intended daily intake. In experiment I, the average daily water intake throughout the 33 days treatment period amounted to 51 and 56 ml/kg in the eprosartan and eprosartan plus daglutril group, respectively, resulting in the uptake of 62 mg/kg/day of eprosartan in both groups, and 104 mg/kg/day of daglutril in the combination group. In experiment II, the average daily water intake during the 25 days treatment period was 64 ml/kg (candesartan only), 62 ml/kg (daglutril only) and 62 ml/kg (candesartan plus daglutril), resulting in daily doses of 0.9 mg/kg of candesartan in both, the candesartan and combination group, and 101 mg/kg and 98 mg/kg of daglutril in the daglutril and combination group, respectively.
The blood pressure, heart rate and activity values, sampled in 5 min intervals by the Dataquest system, were used for calculation of individual 24 hours (=h)-means. These 24 h means were exported to Excel, and group mean values of systolic blood pressure (=SBP), diastolic blood pressure (=DBP), heart rate (=HR), and locomotor activity (=ACT) were calculated for the different treatment groups. For the statistical analysis, a baseline value (pre) was calculated from 3 days prior to compound application, and effects of AT1-receptor antagonist, daglutril and their combination were calculated in relation to this baseline value (average value during the treatment period minus baseline value). The statistical comparison was done by using analysis of variance, followed by two-tailed Student's t-test for comparison of AT1 receptor antagonist and combination groups, both at an error level of P<0.05.

[2] = system: human subjects with congestive heart failure; test: Single dose study of oral daglutril during 12-hour right heart catheterization, subgroup analysis by concomitant losartan potassium; type: in vivo; details: human CHF subjects, single oral dose of daglutril (200, 400 or 800 mg groups pooled), with or without concomitant losartan potassium; value is mean change (SE)
Method: A randomized, placebo-controlled, parallel group, multi-center, single dose study of oral daglutril (vide supra) during 12-hour right heart catheterization in human subjects with congestive heart failure (=CHF) was performed. Each subject received one dose of daglutril or placebo. The study consisted of three visits (or study days when in-subjects were included). Ambulatory subjects were in hospital for two nights and one day. […]
The primary efficacy parameter was the maximum decrease from baseline over 6 hours for SVR and was compared between treatment groups using analysis of covariance, with the baseline value as covariate and center and NYHA classification as factors. […] In addition, the existence of a dose-response relationship for daglutril was evaluated by investigating linear, quadratic and cubic contrasts. The secondary efficacy parameter was the maximum change from baseline for PCWP and was analyzed in the same way as the primary variable. The maximum decrease from baseline over 12 hours, the change from for each individual time point and the adjusted area under the curve (=AUC) over 6 and 12 hours were analyzed for SVR and PCWP, using similar statistical methodology as for the main parameter of interest. All other tertiary efficacy parameters were analyzed using the same statistical methodology as for the primary efficacy parameter. […]

[3] = experiment II, 25 days via drinking water, candesartan 0.9 mg/kg/day, daglutril 101 mg/kg (alone) or 98 mg/kg (combination)
[4] = experiment I, 33 days via drinking water, eprosartan 62 mg/kg/day, daglutril 104 mg/kg/day in combination

Structure (SMILES) | DBP, change vs. baseline [1, 3] | HR, change vs. baseline [1, 3] | SBP, change vs. baseline [1, 3] | DBP, change vs. baseline [1, 4] | HR, change vs. baseline [1, 4] | SBP, change vs. baseline [1, 4] | Placebo corrected mean change of MPAP (average 0.5-6 hrs) [2] | reduction in blood pressure (in words) ([1]; daglutril given alone)
CCOc1nc2cccc(C(=O)OC(C)OC(=O)OC3CCCCC3)c2n1Cc1ccc(-c2ccccc2-c2nn[nH]n2)cc1 (centres unmarked) [Candesartan, candesartan cilexetil] | −19.7 mmHg | -3.0 min⁻¹ | −22.8 mmHg | – | – | – | – | –
CCCCc1ncc(/C=C(\Cc2cccs2)C(=O)O)n1Cc1ccc(C(=O)O)cc1 [Eprosartan, eprosartan mesylate] | – | – | – | −5.6 mmHg | -7.6 min⁻¹ | −5.9 mmHg | – | –
CCOC(=O)C(CCc1ccccc1)CC1(C(=O)NC2CCc3ccccc3N(CC(=O)O)C2=O)CCCC1 (centres unmarked) [daglutril, 2-[1-(1-carboxymethyl-2-oxo-2,3,4,5-tetrahydro-1H-benzo[b]azepin-3-ylcarbamoyl)-cyclopentylmethyl]-4-phenyl-butyric acid ethyl ester] | 0.8 mmHg | -2.0 min⁻¹ | −1.5 mmHg | – | – | – | −3.35 (1.06) mmHg | did not lead to a reduction in blood pressure
